Measured values as given in patent EP4480943A1, “NEW CLASS OF LIPIDS FOR DELIVERING ACTIVE INGREDIENTS INTO CELLS” (Oz Biosciences, priority 2023, dated 2024).

Key:
[1] = Encapsulation efficiency / loaded nucleic acid by SyBr Gold fluorescence after Triton X-100 disruption; format: physicochemical; conditions: N/P 6
Protocol: (§1) The size and charge of the collected LNPs are determined using DLS (Malvern Instruments NanoZS) by dissolving 50 µL of the collected solution in 950 µL of MilliQ water. Then, formed LNPs are destabilized by adding 1% v/v of Triton X-100 and incubate at 30°C for 1h and vortexing. After disruption of the formulation, a 1/100 solution of SyBr™Gold in water is prepared, and 0.5µL of it added to 49.5µL of the resulting mixture that includes Triton X-100. The SyBr™Gold is also added the same way to 49.5µL of a solution that contains non-disrupted LNPs, and to 49.5µL of the mRNA mother solution. Fluorescence of each sample is then read after 30 min incubation at RT using a Victor (Perkin Elmer) fluorimeter (excitation: 495nm; emission: 537nm ;). The encapsulation efficiency (ee(%)) is easily obtained from these fluorescence measurements using the formula below: ee (%) = ((Fluo_LNP1v%triton−Fluo_LNP))/(Fluo_RNAstock solution) × 100 [formula]

[2] = Size and charge of LNPs by DLS (Malvern NanoZS); format: physicochemical; conditions: N/P 6
Protocol: Thin layer chromatographies (TLC) are carried out on aluminium plates covered with silica gel 60 Fasa (Merck). […] The synthesized products are purified on chromatography columns on silica. The flash chromatography separations are carried out on silica gel 60 (230-400 mesh ASTM) (Merck). Particle size and zeta potential measurements: The mean hydrodynamic particle size and charge measurements were performed using Dynamic Light Scattering (DLS) and Laser Doppler Velocimetry (LDV), respectively, using Malvern Nano ZS instrument and DTS software (Malvern Instruments, UK) in a water of Grade 2. Various amounts of cationic poloxamers were diluted in 100 µl of water and mixed with an equal volume of the same water containing DNA. The measurements were carried out in automatic mode and the results are presented as mean +/- SEM, n= 3. Each mean represents the average value of 30 measurements.
as §1

firefly luciferase = assay: Biodistribution study of Luciferase mRNA LNPs, RT-PCR of organs; format: in vivo; conditions: nude mice, i.p., 10µg RNA dose, RT-PCR 6 hours after injection
Protocol: Biodistribution study involving tunable lipids-based LNPs (lipids I, VI, and XIV) has also been conducted in nude mice that were injected i.p. with Luciferase mRNA formulated into 3 different LNPs formulations at 10µg RNA dose to evaluate the nucleic acid delivery into various organs. The liver, lung, kidney and spleen were collected and analysed through RT-PCR 6 hours after injection. As observed previously, tunable lipids-based LNPs are appropriately efficient to allow the observation and quantitation of Luciferase protein in quantity 6 hours after i.p. injection.

F-Luc mRNA expression = assay: In vivo transfection of F-Luc mRNA using LNPs, bioluminescence (IVIS imaging); conditions: nude mice, i.p., 10 µg mRNA
Text: Lipids I, VI and XIV have been formulated into LNPs following the molar composition depicted before (Table 1). 5-methoxyuridine-modified mRNA encoding for Firefly Luciferase (OZ Biosciences, Cat: MRNA16-1000) has been entrapped into the LNP. […] Table 3: Main physical properties of mRNA(F-Luc) LNPs based on tunable lipids I, VI, XIV, and cationic lipid DOTAP
Overall, all LNPs formulations display consistent physico-chemical properties, controlled and reproducible size, charge, polydispersity and encapsulation rate to be used in small animals. A dose equivalent to 10 µg of mRNA has been injected i.p. (intra-peritoneally) in nude mice using three different LNPs. Tunable lipids I and XIV and DOTAP-based LNPs have been selected. Bioluminescence has been monitored over time using IVIS imaging system. […] Indeed 3h post injection, luminescence could be observed in all animals at different proportions (Figure 50). Specifically, F-Luc mRNA expression was higher in mice that received LNPs based on tunable lipids, whereas expression was much lower when DOTAP is used.

ovalbumin (OVA) antigen = assay: In vivo immunization with OVA mRNA LNPs, ELISA and Elispot; conditions: C57BL6J mice, s.c. prime boost (D0-14), 10µg mRNA
Text: In this context, the emergence of vaccine-based LNPs represents a clear opportunity to reach pathologies impossible to fight with more classical vaccine approach. The tunable lipid presented in this document could envisioned as potent pillar for future nucleic acid-based vaccine, due to their ground-breaking features in term of efficiency and safe character. Thus, LNPs based on tunable lipids I and XIV have been formulated to encapsulate unmodified mRNA coding for the ovalbumin (OVA) antigen (OZ Biosciences, Cat: MRNA42-1000) and their physico-chemical properties determined (Table 4). Table 4: Main physical properties of mRNA(OVA) LNPs based on tunable lipids I and XIV.
C57BL6J mice received a prime boost (D0-14) immunizations of OVA antigen delivered by mRNA-based LNPs or by recombinant protein (alone or adjuvanted with aluminium-based adjuvant). To characterize the immuno-phenotyping of the mice, the sera and splenocytes were collected at different time (D0, D14, D21, D28) and analysed by ELISA and Elispot. The mice were immunized by s.c (sub-cutaneous) route with 100µL per injection at 10µg OVA subunit and 10µg mRNA doses. Results are depicted in figures 51 and 52, mRNA-OVA LNP formulations are efficient at priming a strong humoral response upon sub-cutaneous prime boost injection (D0-14). Indeed, a strong antibody response was measured after prime boost immunization. […]

[3] = NTsiRNA-Cy5 LNPs, DiO Label N, total lipid 4.74 mM
[4] = NTsiRNA-Cy5 LNPs, DiO Label Y, total lipid 4.74 mM
[5] = mRNA(F-Luc) LNPs, total lipid 5 mM
[6] = mRNA(GFP) LNPs, total lipid 3.75 mM
[7] = mRNA(OVA) LNPs, total lipid 5 mM

## CCCCC/C=C\C/C=C\CCCCCCCCNC(=O)CCC(NC(=O)CCCN(C)C)C(=O)NCCCCCCCC/C=C\C/C=C\CCCCC (stereo not shown) [XIV]
[1]; [3]
  Encapsulation Efficiency: >90%
  Loaded siRNA: 0.125 ng/µL
[1]; [4]
  Encapsulation Efficiency: >90%
  Loaded siRNA: 0.125 ng/µL
[1]; [5]
  Encapsulation Efficiency: 87.5%
  Loaded RNA: 175 ng/µL
[1]; [6]
  Encapsulation Efficiency: 91%
  Loaded RNA: 91 ng/µL
[1]; [7]
  Encapsulation Efficiency: 94%
  Loaded RNA: 94 ng/µL
[2]; [3]
  PDI: 0.222
  Size: 114 nm
  Zeta: +27 mV
[2]; [4]
  PDI: 0.198
  Size: 106 nm
  Zeta: -2.46 mV
[2]; [5]
  PDI: 0.13
  Size: 99 nm
  Zeta: +4.85 mV
[2]; [6]
  PDI: 0.186
  Size: 115 nm
[2]; [7]
  PDI: 0.149
  Size: 131.7 nm
  Zeta: -7.9 mV
Firefly luciferase
  Luciferase gene expression in kidney: most efficient between the three tested formulation
  Luciferase gene expression in lung: highest rate of gene expression
F-Luc mRNA expression
  time of maximum bioluminescence signal post injection: 3 h
Ovalbumin (OVA) antigen
  immune response (initial response of IgG2c): efficient in generating an immune response
